The values that follow come from patent US9226917B2, “Photodynamic therapy for conditions of the eye” (Valeant Pharmaceuticals International, Inc., priority 2008, dated 2016).

Data set [1] has as its system AMD and other retinal diseases. The following applies: intravitreal injection, published case series; cited from earlier work.
Data set [2] deals with subfoveal choroidal neovascularization (CNV) due to AMD. The experiment in a line: RADICAL study: 24-month randomized, controlled trial of vPDT combination regimens versus ranibizumab monotherapy (visual acuity, retreatments, retinal thickness). The format is in vivo, human. As for the experimental part:
(§1) The study is a 24-month randomized, controlled trial designed to evaluate 3 combination treatment regimens: (1) very low-fluence vPDT (15 J/cm^2) combined with ranibizumab (0.5 mg) and dexamethasone (0.5 mg); (2) half-fluence vPDT (25 J/cm^2) combined with ranibizumab and dexamethasone; and (3) half-fluence vPDT combined with ranibizumab. These regimens are compared with ranibizumab monotherapy in patients with subfoveal choroidal neovascularization (CNV) due to AMD. Inclusion criteria includes ≧50 years old; naïve to AMD treatment; best-corrected VA (BCVA) letter score of 73-24; subfoveal CNV due to AMD; and lesion size <9 DA. Patients (N=160) are randomly assigned to 1 of the 4 treatment arms at baseline, receive 1 initial treatment, and are to be evaluated for retreatment every month based on novel criteria using OCT and FA. Patients in the ranibizumab monotherapy group receive mandatory dosing at months 1 and 2, and as needed thereafter based on the same retreatment criteria. Patients in the combination therapy groups receive assigned treatment as needed (not more frequently than every 2 months), based on retreatment criteria; if treatment is required in an intervening month, then a ranibizumab injection is given. Study outcomes include efficacy, safety, and number of retreatments.
After their initial randomized study treatment, patients in the combination therapy groups return to the clinic monthly for re-treatment evaluation. Re-treatment criteria are based on optical coherence tomography (OCT) and fluorescein angiography (FA). If OCT central retinal thickness (CRT) is ≧250 μm or is increased >50 μm compared with the lowest previous CRT measurement, then the patient is re-treated.
Combination re-treatment is not administered more frequently than every 2 months. If re-treatment is found to be needed in an intervening month, the patient receives a ranibizumab injection only. After their initial randomized study treatment, patients in the ranibizumab monotherapy group receive mandatory re-treatment at months 1 and 2, and then re-treatment as needed thereafter based on the criteria described above. In all treatment arms, monthly assessments and potential re-treatments continue through 12 months of the study. Between 12 and 24 months, patients attend the clinic at least once every 3 months, or more frequently at the investigator's discretion.
Best-corrected visual acuity is assessed by the ETDRS method at screening, on the day of initial treatment (before treatment), at monthly visits through 6 months, and at the 12-, 18-, and 24-month visits. FA is assessed at screening, at the 3- and 12-month visits, and as required according to re-treatment criteria. OCT is assessed to determine retreatment criteria at every visit. Safety, including intraocular pressure, is also evaluated at every visit.
Study outcomes include visual acuity, CRT, lesion size, number of re-treatments, and safety. The primary efficacy variables are mean number of re-treatments and mean change from baseline in visual acuity score.
Randomization occurs on the day of the first treatment to one of the following groups: • Lucentis monotherapy. • Half-fluence Visudyne-Lucentis (V-L) double therapy. • Half-fluence (25 J/cm^2) Visudyne-Lucentis-Dexamethasone (V-L-D) triple therapy. • Very low-fluence (15 J/cm^2) Visudyne-Lucentis-Dexamethasone (V-L-D) triple therapy.
Treatments occur within 7 days of baseline FA. […]

A short description of data set [3]: RADICAL study: safety / adverse events. It counts as in vivo, human. The following applies: 12 months. As for the experimental part: as §1, with “Patients in the ranibizumab monotherapy group receive mandatory dosing at months 1 and 2, and as needed thereafter based on the same retreatment criteria. Patients in the combination therapy groups receive assigned treatment as needed (not more frequently than every 2 months), based on retreatment criteria; if treatment is required in an intervening month, then a ranibizumab injection is given. Study outcomes include efficacy, safety, and number of retreatments.” left out
Best-corrected visual acuity is assessed by the ETDRS method at screening, on the day of initial treatment (before treatment), at monthly visits through 6 months, and at the 12-, 18-, and 24-month visits. FA is assessed at screening, at the 3- and 12-month visits, and as required according to re-treatment criteria. OCT is assessed to determine retreatment criteria at every visit. Safety, including intraocular pressure, is also evaluated at every visit. […]

A further data set has as its system CNV due to AMD. The following applies: dosing every 3 months compared to continued monthly dosing, on average, over the following 9 months; cited from earlier work.

Consider bevacizumab [Avastin], for which the “mean VA in treated patients” value in data set [1] was “increase of mean VA”.

ranibizumab [Lucentis monotherapy]: in data set [2] (12 months), the “percentage of patients whose vision improved by 3 lines or more” value came to 24%. For the same substance, the Mean retreatment rate in data set [2] (ITT, 12 months, Day 0 treatment excluded) is 5.4; in data set [2] (Per-protocol, 12 months), 5.9. Also, the “Mean VA improvement from baseline (letters)” value in data set [2] (ITT, month 12) was 6.5 letters; in data set [2] (Per-protocol, 12 months) it was 6.8 letters. In addition, the “Ocular adverse events considered associated with treatment (share of patients)” value in data set [3] is listed as “approximately one-fourth”. Moreover, in the data set on CNV due to AMD, the “loss of visual acuity benefit” value is given as about 5 letter.
